Data from PubChem BioAssay (NCI).
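Results reflect a 48-hour exposure of cells in 96-well plates to compound at five concentrations. GI50 marks 50% less growth. TGI denotes the concentration required for complete inhibition of growth.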 The source made the active and inactive calls. Cut-off read from the data, not from the text of the source: active = GI50 below about 0.43 µM; inactive = the rest.

Assays:
Experiment in all cases: NCI tumour cell line growth inhibition, 48 h
OVCAR-4 ovarian = tested on: OVCAR-4 ovarian
NCI-H460 lung = tested on: NCI-H460 lung
MCF7 breast = tested on: MCF7 breast
IGROV1 ovarian = tested on: IGROV1 ovarian
SF-268 CNS = tested on: SF-268 CNS
LOX IMVI melanoma = tested on: LOX IMVI melanoma
RPMI-8226 leukemia = tested on: RPMI-8226 leukemia
M14 melanoma = tested on: M14 melanoma

Row | Compound | TGI (OVCAR-4 ovarian) [µM] | TGI (NCI-H460 lung) [µM] | TGI (MCF7 breast) [µM] | TGI (IGROV1 ovarian) [µM] | TGI (SF-268 CNS) [µM] | TGI (LOX IMVI melanoma) [µM] | TGI (RPMI-8226 leukemia) [µM] | GI50 (OVCAR-4 ovarian) [µM] | GI50 (NCI-H460 lung) [µM] | GI50 (MCF7 breast) [µM] | GI50 (IGROV1 ovarian) [µM] | GI50 (SF-268 CNS) [µM] | GI50 (LOX IMVI melanoma) [µM] | GI50 (RPMI-8226 leukemia) [µM] | TGI (M14 melanoma) [µM] | outcome (OVCAR-4 ovarian) | outcome (M14 melanoma) | outcome (SF-268 CNS)
1 | O=NN1C(c2ccccc2)CCCC1c1ccccc1 (stereo not drawn) | > 100 | > 100 | > 100 | > 100 | > 100 | > 100 | > 100 |  |  |  |  |  |  |  |  |  |  | 
2 | COc1cc(/C(=C2/O[C@@H]([C@H]3COC(C)(C)O3)[C@H]3OC(C)(C)O[C@@H]23)c2ccc3c(c2)OCO3)cc(OC)c1OC | > 25 | > 25 | > 25 | > 25 | > 25 | > 25 | > 25 | 8.81 | > 25 | > 25 | > 25 | > 25 | > 25 | > 25 |  |  |  | 
3 | CCOC(=O)C1=C(c2ccccc2)C12N(Cc1ccccc1)C(=O)C2(c1ccccc1)c1ccccc1 (stereo not drawn) |  | > 100 | > 100 | > 100 | > 100 | > 100 | > 100 |  |  |  |  |  |  |  | > 100 |  |  | 
4 | O=P(O)(O)CN1CCNCCN(CP(=O)(O)O)CCN(CP(=O)(O)O)CCNCC1 |  |  |  |  |  |  |  |  |  | 99900 |  |  |  |  |  | inactive | inactive | inactive
5 | COc1cc(-c2nc3cc(Cl)c(Cl)cc3[nH]2)ccc1OCC(=O)N=Nc1c(O)[nH]c2ccc(Cl)cc12 | > 100 |  |  |  |  | 0.738 |  | 0.403 |  |  |  |  | 0.233 |  |  |  |  | 
6 | C[N+]1([O-])[C@H]2CC(OC(=O)[C@H](CO)c3ccccc3)C[C@H]1[C@H]1O[C@H]12 (stereo partly drawn) | > 100 |  | > 100 | > 100 |  | > 100 | > 100 |  |  |  |  |  |  |  | > 100 |  |  | 
7 | O=Cc1c(Br)[nH]c2ccccc12 | > 100 | > 100 | > 100 | > 100 | > 100 | > 100 | > 100 |  |  |  |  |  |  |  |  |  |  | 
8 | COc1ccc([C@H]2c3cc4c(cc3OC(O)(CO)[C@H]2C(=O)O)OCO4)c(OC)c1 (stereo partly drawn) (tested in a mixture with another compound) | > 100 | > 100 |  | > 100 | > 100 | > 100 | > 100 |  |  |  |  |  |  |  | > 100 |  |  | 
9 | Cc1cc2oc3c(ccc(=O)n3C)c(=O)c2c(C)c1Cl | > 100 | > 100 |  | > 100 | > 100 | > 100 |  |  |  |  |  |  |  |  | 81.8 |  |  | 
10 | CCCCOc1ccc2c(c1)CC[C@@H]1[C@@H]2CC[C@]2(C)C(=O)N(CCCC)C(=O)C[C@@H]12 |  | > 100 | > 100 | > 100 |  |  | > 100 |  |  |  |  |  |  |  | > 100 |  |  | 
11 | O=C(c1ccccc1O)c1cc(-c2ncc3c(=O)c4ccccc4oc3n2)c(-c2ccccc2O)[nH]c1=O | 83.5 | 60.9 | 34.2 | > 70.1 | > 75.9 | 39.1 | 60.4 |  |  |  |  |  |  |  |  |  |  | 
12 | O=C(Nc1ccc(Sc2ccc(N=Nc3c(O)c(S(=O)(=O)O)cc4cc(S(=O)(=O)O)ccc34)cc2)cc1)c1ccc(N=Nc2c(O)c(S(=O)(=O)O)cc3cc(S(=O)(=O)O)ccc23)cc1 | > 100 | 27.7 |  | > 100 | > 100 | 34.5 | 56.2 |  |  |  |  |  |  |  | 91.8 |  |  | 
13 | NCCS(=O)(=O)O |  | > 100 | > 100 | > 100 | > 100 | > 100 | > 100 |  |  |  |  |  |  |  | > 100 |  |  | 
